Tests used:
[1] = system: PC-3M-Luc-C6 prostate cells; assay: In Vitro PC-3M-Luc-C6 Prostate Cell Proliferation Assay in Lipid Reduced Medium; format: cell-based; conditions: 96 h
Protocol: PC-3M-Luc-C6 prostate cells were obtained from Xenogen Corporation. […] The cells were passaged twice a week.
The next day 10 μl test compound/DMSO diluted in medium was added (3E-5M, 1E-5M, 3E-6M, 1E-6M, 3E-7M, 1E-7M, 3E-8M, 1E-8M final concentration). Compounds were tested in duplicate. After 96 h incubation at 37° C., 5% CO2 25 μl ATP-glow mix was added. The plate was incubated for 30 min at 37° C. and luminescence was measured with the Envision.
(§1) pIC50 values were calculated as follows. Raw data generated by the instruments were normalized to % Controlmin values, which were calculated as: % Controlmin=100*(x−mLC)/(mHC−mLC),
(§2) where mLC and mHC are the means of the low control wells and high control wells on the plate, after manual exclusion of outliers. The relation between the % Controlmin values and concentration was fitted to a 4-parameter logistic curve using a non-linear least squares regression method to determine the pIC50 value. Outlying data points were excluded manually to get a correct fit. […] The IC50 parameter was always determined by non-linear regression, but one or more of the other parameters may have been held fixed on a relevant input value, such as 0 for the bottom values.

[2] = molecular target: hFASN enzyme (full length) (Homo sapiens (Human), UniProt P49327); assay: Fatty Acid Synthase (FASN) Inhibition Scintillation Proximity Assay; format: biochemical; conditions: 3H-acetyl-CoA and malonyl-CoA substrates, SPA, mean if tested more than once
Chain of hFASN enzyme (full length) (P49327 whole entry): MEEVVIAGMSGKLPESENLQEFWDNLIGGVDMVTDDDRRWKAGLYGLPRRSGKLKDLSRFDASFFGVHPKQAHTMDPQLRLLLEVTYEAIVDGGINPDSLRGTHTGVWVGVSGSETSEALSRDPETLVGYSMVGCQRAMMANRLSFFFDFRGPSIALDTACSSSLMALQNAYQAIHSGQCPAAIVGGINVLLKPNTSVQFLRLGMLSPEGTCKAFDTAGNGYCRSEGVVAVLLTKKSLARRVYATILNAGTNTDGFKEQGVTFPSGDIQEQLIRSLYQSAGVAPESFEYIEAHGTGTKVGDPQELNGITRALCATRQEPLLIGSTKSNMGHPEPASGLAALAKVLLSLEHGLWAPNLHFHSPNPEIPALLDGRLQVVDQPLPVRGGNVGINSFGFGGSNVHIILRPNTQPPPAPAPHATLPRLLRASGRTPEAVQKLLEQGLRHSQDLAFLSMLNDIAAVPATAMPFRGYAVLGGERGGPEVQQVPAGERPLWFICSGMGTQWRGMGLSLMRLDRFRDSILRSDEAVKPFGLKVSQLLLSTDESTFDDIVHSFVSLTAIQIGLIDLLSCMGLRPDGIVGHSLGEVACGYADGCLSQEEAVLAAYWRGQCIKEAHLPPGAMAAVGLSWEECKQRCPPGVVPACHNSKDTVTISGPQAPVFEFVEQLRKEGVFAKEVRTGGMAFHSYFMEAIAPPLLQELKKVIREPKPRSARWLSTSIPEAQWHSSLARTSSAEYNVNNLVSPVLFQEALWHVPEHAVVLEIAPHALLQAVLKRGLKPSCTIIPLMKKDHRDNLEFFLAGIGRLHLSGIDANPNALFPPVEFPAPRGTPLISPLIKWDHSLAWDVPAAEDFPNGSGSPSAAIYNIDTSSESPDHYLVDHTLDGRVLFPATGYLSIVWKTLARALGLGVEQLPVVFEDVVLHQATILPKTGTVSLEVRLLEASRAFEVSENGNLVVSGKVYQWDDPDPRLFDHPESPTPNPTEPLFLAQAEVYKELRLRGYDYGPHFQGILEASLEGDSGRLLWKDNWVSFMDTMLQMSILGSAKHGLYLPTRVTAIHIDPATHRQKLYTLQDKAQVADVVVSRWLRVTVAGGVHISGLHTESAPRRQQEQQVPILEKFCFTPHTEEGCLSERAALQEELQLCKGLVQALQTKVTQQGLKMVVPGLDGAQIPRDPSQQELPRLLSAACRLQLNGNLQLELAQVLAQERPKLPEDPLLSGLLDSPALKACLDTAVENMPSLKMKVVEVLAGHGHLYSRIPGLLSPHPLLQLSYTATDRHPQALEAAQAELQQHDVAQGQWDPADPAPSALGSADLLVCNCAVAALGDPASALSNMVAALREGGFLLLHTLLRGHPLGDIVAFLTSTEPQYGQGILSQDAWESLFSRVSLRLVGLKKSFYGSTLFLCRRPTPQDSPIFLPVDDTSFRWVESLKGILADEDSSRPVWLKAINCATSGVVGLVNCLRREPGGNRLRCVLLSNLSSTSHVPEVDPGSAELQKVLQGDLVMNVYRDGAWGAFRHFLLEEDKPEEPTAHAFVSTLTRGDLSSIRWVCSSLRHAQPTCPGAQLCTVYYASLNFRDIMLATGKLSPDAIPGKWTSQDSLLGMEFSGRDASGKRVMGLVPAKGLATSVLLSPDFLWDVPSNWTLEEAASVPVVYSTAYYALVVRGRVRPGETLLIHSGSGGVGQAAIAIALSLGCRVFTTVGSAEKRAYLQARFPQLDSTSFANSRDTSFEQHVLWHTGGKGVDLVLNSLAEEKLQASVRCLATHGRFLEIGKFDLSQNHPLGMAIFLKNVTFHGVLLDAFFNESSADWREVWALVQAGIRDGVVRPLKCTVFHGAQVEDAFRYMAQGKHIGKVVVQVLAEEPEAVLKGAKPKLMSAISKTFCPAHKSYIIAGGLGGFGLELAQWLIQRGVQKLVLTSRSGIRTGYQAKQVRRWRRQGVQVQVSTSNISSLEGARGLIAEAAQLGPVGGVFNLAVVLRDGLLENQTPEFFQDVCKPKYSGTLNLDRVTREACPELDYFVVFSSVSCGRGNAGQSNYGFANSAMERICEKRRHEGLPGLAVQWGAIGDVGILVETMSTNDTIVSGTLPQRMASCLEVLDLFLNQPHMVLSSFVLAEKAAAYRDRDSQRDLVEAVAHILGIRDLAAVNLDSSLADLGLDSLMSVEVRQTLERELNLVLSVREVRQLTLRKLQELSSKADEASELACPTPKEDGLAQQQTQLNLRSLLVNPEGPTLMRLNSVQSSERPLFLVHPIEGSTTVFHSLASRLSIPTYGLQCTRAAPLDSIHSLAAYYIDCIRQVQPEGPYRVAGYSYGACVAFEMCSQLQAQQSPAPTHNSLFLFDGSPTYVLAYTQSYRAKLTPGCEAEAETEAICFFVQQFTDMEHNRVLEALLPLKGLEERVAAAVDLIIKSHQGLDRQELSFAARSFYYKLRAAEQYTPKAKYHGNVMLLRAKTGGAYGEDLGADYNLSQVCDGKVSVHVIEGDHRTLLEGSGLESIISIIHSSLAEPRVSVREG
How it was run: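 Full-length human FASN (300 ng, in-house purified) in 100 mM KH2PO4 pH 7.5, 1 mM DTT converts 3H-acetyl-CoA plus malonyl-CoA to hydrophobic 3H-palmitate, captured by streptavidin imaging beads and read on LEADseeker at 610 nm after ≥24 h. Compounds tested 0.01–30 μM; data normalized to plate controls and fitted to 4-parameter logistic curves.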

[3] = system: LNCaP_Vancouver prostate cells; assay: In Vitro LNCaP Vancouver Prostate Cell Proliferation Assay in Lipid Reduced Medium; format: cell-based; conditions: 96 h, 10% lipid reduced serum, ATP-glow
Protocol: LNCaP_Vancouver prostate cells were obtained from the Vancouver Prostate Cancer Centre.
Compounds were tested in duplicate. After 96 h incubation at 37° C., 5% CO2 25 μl ATP-glow mix was added. The plate was incubated for 30 min at 37° C. and luminescence was measured with the Envision.
as §1, §2

[4] = molecular target: FASN Keto-reductase Domain (hFASN enzyme, full length) (Homo sapiens (Human), UniProt P49327); assay: Fatty Acid Synthase Keto-reductase Domain (FASN KR) Inhibition; format: biochemical; conditions: NADPH oxidation at 340 nm, ethyl acetoacetate substrate
Chain of FASN Keto-reductase Domain (hFASN enzyme, full length) (P49327 whole entry, the tested form may be a part): as the sequence (P49327 whole entry) above
How it was run: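 Absorbance was read before (T1) and after 20 min incubation at room temperature (T2), with the decrease T1−T2 as signal. Data were normalized to plate high and low controls as % Controlmin; IC50 came from a 4-parameter logistic fit of Controlmin versus compound concentration.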

A2780 ovarian cells [5] = assay: A2780 Ovarian Cell Proliferation Assay in Lipid Reduced Medium, with Palmitate; format: cell-based; conditions: 10% lipid-reduced serum, 25 μM palmitate, 96 h, MTT
Protocol: (§3) The biological assays described below correspond to comparative assays for ovarian cell proliferation.
2500 cells were seeded in a 96-well clear well plate in 200 μL RPM11640 with 10% Fetal Calf Serum (Hyclone), and incubated at 37° C., 5% CO2. Blanks were wells without cells. The next day the culture medium was aspirated and replaced by 160 μL culture medium with 10% Lipid-Reduced Serum (LRS, Hyclone). […] After 96 h incubation, an MTT assay was performed.

A2780 ovarian cells [6] = assay: A2780 Ovarian Cell Proliferation Assay in Lipid Reduced Medium, without Palmitate; format: cell-based; conditions: 10% lipid-reduced serum, no palmitate, 96 h, MTT
Protocol: as §3
2500 cells were seeded in a 96-well clear well plate in 200 μL RPM11640 with 10% Fetal Calf Serum (Hyclone), and incubated at 37° C., 5% CO2. Blanks were wells without cells. The next day the culture medium was aspirated and replaced by 160 μL culture medium with 10% Lipid-Reduced Serum (LRS, Hyclone). 20 μL test compound (at concentrations of 30 μM, 10 μM, 3 μM, 1 μM, 0.30 μM, 0.10 μM, 0.03 μM and 0.01 μM)/DMSO dilution followed by 20 μL ethanol-BSA solution were added to a final concentrations of 0.2% DMSO, 0.2% fatty-acid-free BSA, 0.25% ethanol. After 96 h incubation an MTT assay was performed.
Raw data generated by the instrument were normalized to % Controlmin values, which were calculated as: % Controlmin=100*(x−mLC)/(mHC−mLC)
where mLC and mHC were the means of the low control wells and high control wells on the plate, after manual exclusion of outliers. A plot of Controlmin versus test compound concentration was fitted to a 4-parameter logistic curve using a non-linear least squares regression method.

IC50 ([1]; Prostate cell, read-out: pIC50 PC-3M-Luc-C6 prostate cell, 10% lipid reduced serum, 96 h, ATP-glow (converted)) [µM]	Human FASN pIC50 [2]	IC50 ([3]; Prostate cell, read-out: pIC50 LNCaP_Vancouver prostate cell (converted)) [µM]	FASN Keto-reductase Domain pIC50 [4]	pIC50 With Palmitate (A2780 ovarian cells [5])	pIC50 Without Palmitate (A2780 ovarian cells [6])	pIC50 PC-3M-Luc-C6 prostate cell ([1]; 10% lipid reduced serum, ATP-glow)	pIC50 LNCaP_Vancouver prostate cell [3]	SMILES
0.871	6.11	2.34	5.93					CC1(C)N=C(c2ccc(-c3ccc4cncnc4c3)cc2F)N(CC2CN(C(=O)C3CC3)C2)C1=O [Compound 43, 1-((1-(cyclopropanecarbonyl)azetidin-3-yl)methyl)-2-(2-fluoro-4-(quinazolin-7-yl)phenyl)-4,4-dimethyl-1H-imidazol-5(4H)-one]
				<5	7.19	7.04	6.87	Cn1ncc2cc(-c3ccc(C4=NC(C)(C)C(=O)N4CC4CN(C(=O)C5CC5)C4)c(F)c3)ccc21 [Compound 69, 1-((1-(cyclopropanecarbonyl)azetidin-3-yl)methyl)-2-(2-fluoro-4-(1-methyl-1H-indazol-5-yl)phenyl)-4,4-dimethyl-1H-imidazol-5(4H)-one]
